Data on 31 compounds can be found in US20090170812A1, “Transcription factor modulating compounds and methods of use thereof” (priority 2006, published 2009).

Data set [1] has as its system Yersinia pseudotuberculosis.
The target in the next data set is LcrF (VirF) (Yersinia pestis, UniProt P28808). The experiment in a line: biochemical. In kind it is binding, Y. pseudotuberculosis.
The target of a further data set is T1, ExsA (Pseudomonas aeruginosa, UniProt P26993).
T1 construct: made in house
T1 sequence (P26993 1-278): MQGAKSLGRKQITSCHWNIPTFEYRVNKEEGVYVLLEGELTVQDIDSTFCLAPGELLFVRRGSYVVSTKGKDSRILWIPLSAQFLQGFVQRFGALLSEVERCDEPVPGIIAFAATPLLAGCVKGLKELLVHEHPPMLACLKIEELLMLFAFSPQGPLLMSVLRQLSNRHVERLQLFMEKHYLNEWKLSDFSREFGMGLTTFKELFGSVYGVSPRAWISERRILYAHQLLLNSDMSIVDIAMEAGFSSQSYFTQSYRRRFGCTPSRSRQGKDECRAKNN
The experiment in a line: In vitro activity of Mar inhibitors against ExsA: cell-free DNA binding assay. The following applies: purified ExsA from P. aeruginosa, inhibition of DNA binding in vitro.

Another data set relates to P. aeruginosa. The experiment in a line: Whole cell assay: cytotoxicity of P. aeruginosa toward J774 cells (CytoTox 96, LDH release). Conditions: percent cytotoxicity of treated P. aeruginosa toward J774 cells. For orientation: LDH leaks from cells whose membrane has failed.

Chain of LcrF (VirF) (P28808 whole entry, looked up): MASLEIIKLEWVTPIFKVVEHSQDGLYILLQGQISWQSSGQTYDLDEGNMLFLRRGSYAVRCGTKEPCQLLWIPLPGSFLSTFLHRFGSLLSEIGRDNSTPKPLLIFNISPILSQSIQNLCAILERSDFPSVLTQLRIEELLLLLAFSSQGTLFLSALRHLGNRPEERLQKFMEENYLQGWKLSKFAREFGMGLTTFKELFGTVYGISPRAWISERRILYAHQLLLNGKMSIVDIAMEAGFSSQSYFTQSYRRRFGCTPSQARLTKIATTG

Broadly, the EC50 is the concentration at which the effect is half-maximal. Read a low EC50 as greater potency. Consider `O=C(Nc1ccc(-c2nc3ccc([N+](=O)[O-])cc3n2O)nc1)c1ccc(F)cc1` [AF], for which the “Cytotoxicity at 50 μg/mL Yersinia” value in data set [1] is listed as “* (key: *: percent cytotoxicity above 75% at 50 μg/mL; **: cytotoxicities below 75% at 50 μg/mL)”. In addition, the EC50 on LcrF (VirF) and on ExsA was > 25.1 µM each time.

As to `O=C(Nc1ccc(-c2nc3ccc([N+](=O)[O-])cc3n2OCP(=O)(O)O)cc1)c1ccc(F)cc1` [AK], the “Cytotoxicity at 50 μg/mL Yersinia” value in data set [1] is “* (key: *: percent cytotoxicity above 75% at 50 μg/mL; **: cytotoxicities below 75% at 50 μg/mL)”.

Regarding `CCOP(=O)(COn1c(-c2ccc(NC(=O)c3ccc(F)cc3)cc2)nc2ccc([N+](=O)[O-])cc21)OCC` [AU], in data set [1], the “Cytotoxicity at 50 μg/mL Yersinia” value is on record as “* (key: *: percent cytotoxicity above 75% at 50 μg/mL; **: cytotoxicities below 75% at 50 μg/mL)”.

As for `O=C(Nc1ccc(-c2nc3ccncc3n2O)cc1)c1ccc(F)cc1` [AX], the “Cytotoxicity at 50 μg/mL Yersinia” value in data set [1] is “* (key: *: percent cytotoxicity above 75% at 50 μg/mL; **: cytotoxicities below 75% at 50 μg/mL)”.

As to `O=C(/C=C/c1ccc(F)cc1)Nc1ccc(-c2nc3ccncc3n2O)cc1` [AY], in data set [1], the “Cytotoxicity at 50 μg/mL Yersinia” value is “* (key: *: percent cytotoxicity above 75% at 50 μg/mL; **: cytotoxicities below 75% at 50 μg/mL)”.

Turning to `Cc1cc(-c2nc3ccc([N+](=O)[O-])cc3n2O)ccc1NC(=O)/C=C/c1ccc(F)cc1` [BB], the “Cytotoxicity at 50 μg/mL Yersinia” value in data set [1] is listed as “* (key: *: percent cytotoxicity above 75% at 50 μg/mL; **: cytotoxicities below 75% at 50 μg/mL)”. For the same compound, the EC50 was 10.1 to 25 µM on LcrF (VirF) and > 25.1 µM at ExsA.

On to `O=C(Nc1ccc(-c2nc3ccc([N+](=O)[O-])cc3n2O)cc1)c1ccc2c(c1)CCCC2=O` [BD], for which, in data set [1], the “Cytotoxicity at 50 μg/mL Yersinia” value is listed as “* (key: *: percent cytotoxicity above 75% at 50 μg/mL; **: cytotoxicities below 75% at 50 μg/mL)”. For the same compound, the concentration giving a half-maximal response (EC50) on LcrF (VirF) and at ExsA was > 25.1 µM in each case.

With `CC(=O)c1ccc(C(=O)Nc2ccc(-c3nc4ccc([N+](=O)[O-])cc4n3O)cc2C)cc1` [BF], the “Cytotoxicity at 50 μg/mL Yersinia” value in data set [1] is “* (key: *: percent cytotoxicity above 75% at 50 μg/mL; **: cytotoxicities below 75% at 50 μg/mL)”. For the same compound, on ExsA, the EC50 was < 10 µM.

Take `CN(C)C(=O)c1ccc(C(=O)Nc2ccc(-c3nc4ccc([N+](=O)[O-])cc4n3O)cc2)cc1` [BP]: the “Cytotoxicity at 50 μg/mL Yersinia” value in data set [1] is “* (key: *: percent cytotoxicity above 75% at 50 μg/mL; **: cytotoxicities below 75% at 50 μg/mL)”. For the same compound, the “Cytotoxicity at 50 μg/mL Pseudomonas” value in the data set with P. aeruginosa is recorded as “* (percent cytotoxicities above 75% at 50 mg/mL)”.

In the case of `CN(C)CCN(C)c1cc2nc(-c3ccc(NC(=O)/C=C/c4ccc(F)cc4)cc3)n(O)c2cc1[N+](=O)[O-]` [CE], the EC50 at LcrF (VirF) and at ExsA was < 10 µM in each case. Besides, the “Cytotoxicity at 50 μg/mL Pseudomonas” value in the data set with P. aeruginosa was “** (cytotoxicities below 75% at 50 mg/mL)”.

As to `CN1CCN(CCOc2cc3nc(-c4ccc(NC(=O)/C=C/c5ccc(F)cc5)cc4)n(O)c3cc2[N+](=O)[O-])CC1` [CF], the EC50 at LcrF (VirF) and at ExsA was < 10 µM in each case. In the data set on P. aeruginosa, the “Cytotoxicity at 50 μg/mL Pseudomonas” value was “* (percent cytotoxicities above 75% at 50 mg/mL)”.

`CN(C)CCOc1cc2nc(-c3ccc(NC(=O)/C=C/c4ccc(F)cc4)cc3)n(O)c2cc1[N+](=O)[O-]` [CG]: the “Cytotoxicity at 50 μg/mL Pseudomonas” value in the data set with P. aeruginosa is reported as “* (percent cytotoxicities above 75% at 50 mg/mL)”. Also, on ExsA, the half-maximal effective concentration (EC50) was > 25.1 µM.

In the case of `O=C(/C=C/c1ccc(F)cc1)Nc1ccc(-c2nc3ccc(-n4ccnc4)cc3n2O)cc1` [CH], the EC50 was > 25.1 µM on LcrF (VirF) and 10.1 to 25 µM at ExsA. For the same compound, in the data set on P. aeruginosa, the “Cytotoxicity at 50 μg/mL Pseudomonas” value is given as “* (percent cytotoxicities above 75% at 50 mg/mL)”.

`CC(=O)c1ccc(/C=C/C(=O)Nc2ccc(-c3nc4cc(OCCN5CCN(C)CC5)c([N+](=O)[O-])cc4n3O)cc2)cc1` [CI]: the EC50 on LcrF (VirF) and at ExsA was < 10 µM throughout. Moreover, in the data set on P. aeruginosa, the “Cytotoxicity at 50 μg/mL Pseudomonas” value is “** (cytotoxicities below 75% at 50 mg/mL)”.

As for `CC(=O)c1ccc(/C=C/C(=O)Nc2ccc(-c3nc4cc(OCCN5CCOCC5)c([N+](=O)[O-])cc4n3O)cc2)cc1` [CJ], the “Cytotoxicity at 50 μg/mL Pseudomonas” value in the data set on P. aeruginosa is listed as “** (cytotoxicities below 75% at 50 mg/mL)”.

Regarding `CC(=O)c1ccc(/C=C/C(=O)Nc2ccc(-c3nc4ccc(C#N)cc4n3O)cc2)cc1` [CK], the EC50 on LcrF (VirF) and on ExsA was 10.1 to 25 µM each time. Also, the “Cytotoxicity at 50 μg/mL Pseudomonas” value in the data set with P. aeruginosa is given as “** (cytotoxicities below 75% at 50 mg/mL)”.

With `N#Cc1ccc2nc(-c3ccc(NC(=O)c4ccc(-n5ccnc5)cc4)cc3)n(O)c2c1` [CO], the EC50 is 10.1 to 25 µM on LcrF (VirF) and > 25.1 µM at ExsA. Further, the “Cytotoxicity at 50 μg/mL Pseudomonas” value with P. aeruginosa is given as “** (cytotoxicities below 75% at 50 mg/mL)”.

As for `NC(=O)c1ccc2nc(-c3ccc(NC(=O)c4ccc(F)cc4)cc3)n(O)c2c1` [Compound AD, 2-[4-(4-Fluoro-benzoylamino)-phenyl]-3-hydroxy-3H-benzoimidazole-5-carboxylic Acid Amide], in data set [1], the “Cytotoxicity at 50 μg/mL Yersinia” value was “* (key: *: percent cytotoxicity above 75% at 50 μg/mL; **: cytotoxicities below 75% at 50 μg/mL)”.

For the compound `O=C(Nc1ccc(-c2nc3ccc([N+](=O)[O-])cc3n2O)c(OCP(=O)(O)O)c1)c1ccc(F)cc1` [Compound AR, [5-(4-Fluoro-benzoylamino)-2-(1-hydroxy-6-nitro-1H-benzoimidazol-2-yl)-phenoxymethyl]-phosphonic Acid], the “Cytotoxicity at 50 μg/mL Yersinia” value in data set [1] is given as “* (key: *: percent cytotoxicity above 75% at 50 μg/mL; **: cytotoxicities below 75% at 50 μg/mL)”.

`O=C(/C=C/c1ccc(-n2ccnc2)cc1)Nc1ccc(-c2nc3ccc([N+](=O)[O-])cc3n2O)cc1` [Compound BK, (E)-N-[4-(1-Hydroxy-6-nitro-1H-benzoimidazol-2-yl)-phenyl]-3-(4-imidazol-1-yl-phenyl)-acrylamide]: the “Cytotoxicity at 50 μg/mL Yersinia” value in data set [1] was “** (key: *: percent cytotoxicity above 75% at 50 μg/mL; **: cytotoxicities below 75% at 50 μg/mL)”. The “Cytotoxicity at 50 μg/mL Pseudomonas” value with P. aeruginosa is listed as “** (cytotoxicities below 75% at 50 mg/mL)”. Moreover, the half-maximal effective concentration (EC50) on ExsA was < 10 µM.

For the compound `O=C(/C=C/c1ccc(F)cc1)Nc1ccc(-c2nc3cc(F)c([N+](=O)[O-])cc3n2O)cc1` [Compound BO, N-[4-(5-Fluoro-1-hydroxy-6-nitro-1H-benzoimidazol-2-yl)-phenyl]-3-(4-fluoro-cinnamyl)-amide], the 50% effective concentration (EC50) on LcrF (VirF) and on ExsA was > 25.1 µM throughout. The “Cytotoxicity at 50 μg/mL Pseudomonas” value in the data set on P. aeruginosa is “** (cytotoxicities below 75% at 50 mg/mL)”.

For `CC(=O)c1ccc(C(=O)Nc2ccc(-c3nc4ccc(-n5cccn5)cc4n3O)cc2)cc1` [Compound CM, 4-Acetyl-N-[4-(1-hydroxy-6-pyrazol-1-yl-1H-benzoimidazol-2-yl)-phenyl]-benzamide], the “Cytotoxicity at 50 μg/mL Pseudomonas” value in the data set on P. aeruginosa is listed as “* (percent cytotoxicities above 75% at 50 mg/mL)”.

Consider `CC(=O)c1ccc(C(=O)Nc2ccc(-c3nc4ccc(-n5ccnc5)cc4n3O)cc2)cc1` [Compound CN, 4-Acetyl-N-[4-(1-hydroxy-6-imidazol-1-yl-1H-benzoimidazol-2-yl)-phenyl]-benzamide], for which the “Cytotoxicity at 50 μg/mL Pseudomonas” value in the data set with P. aeruginosa was “* (percent cytotoxicities above 75% at 50 mg/mL)”.

Turning to `O=C(O)COn1c(-c2ccc(NC(=O)c3ccc(F)cc3)cc2)nc2ccc([N+](=O)[O-])cc21` [Compound V, {2-[4-(4-Fluoro-benzoylamino)-phenyl]-6-nitro-benzoimidazol-1-yloxy}-acetic Acid], the “Cytotoxicity at 50 μg/mL Yersinia” value in data set [1] is “* (key: *: percent cytotoxicity above 75% at 50 μg/mL; **: cytotoxicities below 75% at 50 μg/mL)”. Further, on LcrF (VirF), the concentration for a half-maximal effect (EC50) was > 25.1 µM.

Regarding `CC(C)c1ccc(/C=C/C(=O)Nc2ccc(-c3nc4ccc([N+](=O)[O-])cc4n3O)cc2)cc1` [H], the “Cytotoxicity at 50 μg/mL Yersinia” value in data set [1] is reported as “* (key: *: percent cytotoxicity above 75% at 50 μg/mL; **: cytotoxicities below 75% at 50 μg/mL)”. The EC50 at LcrF (VirF) and at ExsA was > 25.1 µM throughout.

For `C/C(=C\c1ccccc1)C(=O)Nc1ccc(-c2nc3ccc([N+](=O)[O-])cc3n2O)cc1` [I], the “Cytotoxicity at 50 μg/mL Yersinia” value in data set [1] is “* (key: *: percent cytotoxicity above 75% at 50 μg/mL; **: cytotoxicities below 75% at 50 μg/mL)”. In addition, the concentration giving a half-maximal response (EC50) on LcrF (VirF) is > 25.1 µM.

On to `O=C(Nc1ccc2nc(-c3ccc([N+](=O)[O-])cc3)n(O)c2c1)c1ccc(F)cc1` [L], for which the “Cytotoxicity at 50 μg/mL Yersinia” value in data set [1] is reported as “* (key: *: percent cytotoxicity above 75% at 50 μg/mL; **: cytotoxicities below 75% at 50 μg/mL)”.

Regarding `NC(=NO)c1ccc2nc(-c3ccc(NC(=O)c4ccc(F)cc4)cc3)n(O)c2c1` [M], in data set [1], the “Cytotoxicity at 50 μg/mL Yersinia” value is recorded as “* (key: *: percent cytotoxicity above 75% at 50 μg/mL; **: cytotoxicities below 75% at 50 μg/mL)”. In addition, the 50% effective concentration (EC50) on LcrF (VirF) and at ExsA was > 25.1 µM throughout.

`O=C(C/C=C/c1ccccc1)Nc1ccc(-c2nc3ccc([N+](=O)[O-])cc3n2O)cc1` [N]: the “Cytotoxicity at 50 μg/mL Yersinia” value in data set [1] is “* (key: *: percent cytotoxicity above 75% at 50 μg/mL; **: cytotoxicities below 75% at 50 μg/mL)”. Besides, the EC50 on LcrF (VirF) is > 25.1 µM. In addition, the “Cytotoxicity at 50 μg/mL Pseudomonas” value in the data set with P. aeruginosa is on record as “* (percent cytotoxicities above 75% at 50 mg/mL)”.

With `CC(=NO)c1ccc2nc(-c3ccc(NC(=O)c4ccc(N(C)C)cc4)cc3)n(O)c2c1` [U], the “Cytotoxicity at 50 μg/mL Yersinia” value in data set [1] is reported as “* (key: *: percent cytotoxicity above 75% at 50 μg/mL; **: cytotoxicities below 75% at 50 μg/mL)”. Further, the EC50 at LcrF (VirF) and on ExsA was > 25.1 µM throughout.

Turning to `CCc1cc(-c2nc3ccc([N+](=O)[O-])cc3n2O)ccc1NC(=O)c1ccc(F)cc1` [Z], the “Cytotoxicity at 50 μg/mL Yersinia” value in data set [1] is reported as “* (key: *: percent cytotoxicity above 75% at 50 μg/mL; **: cytotoxicities below 75% at 50 μg/mL)”. In addition, the 50% effective concentration (EC50) on LcrF (VirF) is 10.1 to 25 µM; on ExsA, > 25.1 µM.
